# Results reported in PubChem BioAssay AID2060620 (Molecular Pharmacology Branch, DTP, NCI, 2025).
# “And” between values parts separate entries of the source, which are not always exact repeats. Identical values can stand only once.
# Test system: 328373-195-R-J1-PDC complex spheroids, viability % test/control
# Assay: Anticancer human tumor 328373-195-R-J1-PDC patient-derived head and neck squamous carcinoma cell line growth inhibition [CLK]
# Conditions: for viability, T/C: stronger effect = lower value
# Procedure, shortened: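 Multi-cell-type spheroids combined patient-derived tumor cells with HUVEC endothelial cells and human mesenchymal stem cells. Paired agents were dosed in half-log steps down from about clinical Cmax, or from 10 microM where Cmax was unknown.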
# [1] = curve of first compound, second compound 0.0316 µM
# [2] = curve of first compound, second compound 0.1 µM
# [3] = curve of first compound, second compound 0.316 µM
# [4] = curve of first compound, second compound 1 µM
# [5] = curve of first compound, second compound 3.16 µM
# [6] = curve of first compound, second compound 10 µM
# [7] = second compound 0.0316 µM, first compound 0.00949 µM
# [8] = second compound 0.0316 µM, first compound 0.03 µM
# [9] = second compound 0.0316 µM, first compound 0.0949 µM
# [10] = second compound 0.0316 µM, first compound 0.3 µM
# [11] = second compound 0.1 µM, first compound 0.00949 µM
# [12] = second compound 0.1 µM, first compound 0.03 µM
# [13] = second compound 0.1 µM, first compound 0.0949 µM
# [14] = second compound 0.1 µM, first compound 0.3 µM
# [15] = second compound 0.316 µM, first compound 0.00949 µM
# [16] = second compound 0.316 µM, first compound 0.03 µM
# [17] = second compound 0.316 µM, first compound 0.0949 µM
# [18] = second compound 0.316 µM, first compound 0.3 µM
# [19] = second compound 1 µM, first compound 0.00949 µM
# [20] = second compound 1 µM, first compound 0.03 µM
# [21] = second compound 1 µM, first compound 0.0949 µM
# [22] = second compound 1 µM, first compound 0.3 µM
# [23] = second compound 3.16 µM, first compound 0.00949 µM
# [24] = second compound 3.16 µM, first compound 0.03 µM
# [25] = second compound 3.16 µM, first compound 0.0949 µM
# [26] = second compound 3.16 µM, first compound 0.3 µM
# [27] = second compound 10 µM, first compound 0.00949 µM
# [28] = second compound 10 µM, first compound 0.03 µM
# [29] = second compound 10 µM, first compound 0.0949 µM
# [30] = second compound 10 µM, first compound 0.3 µM
# 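Note: spheroids exposed to the agents for 7 days.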
smiles,measurement,setting,value
NC(=O)C(=Cn1cnc(-c2cc(C(F)(F)F)cc(C(F)(F)F)c2)n1)c1cncnc1 + CNC(=O)c1ccc(Nc2nc(OC3CCCC3)c3c(-c4ccc5nc(C)oc5c4)c[nH]c3n2)c(OC)c1,IC50,[1],< 9.49 nM
same,IC50,[2],< 9.49 nM
same,IC50,[3],< 9.49 nM
same,IC50,[4],< 9.49 nM
same,IC50,[5],< 9.49 nM
same,IC50,[6],< 9.49 nM
same,"viability, T/C",[7],38.7%
same,"viability, T/C",[8],20.8%
same,"viability, T/C",[9],0.53%
same,"viability, T/C",[10],0.2%
same,"viability, T/C","second compound 0.0316 µM, first compound 0.949 µM",0.1%
same,"viability, T/C","second compound 0.0316 µM, first compound 3 µM",0.07%
same,"viability, T/C",[11],15.9%
same,"viability, T/C",[12],3.9%
same,"viability, T/C",[13],0.26%
same,"viability, T/C",[14],0.16%
same,"viability, T/C","second compound 0.1 µM, first compound 0.949 µM",0.11%
same,"viability, T/C","second compound 0.1 µM, first compound 3 µM",0.06%
same,"viability, T/C",[15],6.88%
same,"viability, T/C",[16],2.56%
same,"viability, T/C",[17],0.37%
same,"viability, T/C",[18],0.09%
same,"viability, T/C","second compound 0.316 µM, first compound 0.949 µM",0.1%
same,"viability, T/C","second compound 0.316 µM, first compound 3 µM",1.78%
same,"viability, T/C",[19],5.63%
same,"viability, T/C",[20],1.81%
same,"viability, T/C",[21],0.17%
same,"viability, T/C",[22],0.06%
same,"viability, T/C","second compound 1 µM, first compound 0.949 µM",0.08%
same,"viability, T/C","second compound 1 µM, first compound 3 µM",0.06%
same,"viability, T/C",[23],5.68%
same,"viability, T/C",[24],1.86%
same,"viability, T/C",[25],0.15%
same,"viability, T/C",[26],0.15%
same,"viability, T/C","second compound 3.16 µM, first compound 0.949 µM",1.8%
same,"viability, T/C","second compound 3.16 µM, first compound 3 µM",0.15%
same,"viability, T/C",[27],5.83%
same,"viability, T/C",[28],2.16%
same,"viability, T/C",[29],0.18%
same,"viability, T/C",[30],0.11%
same,"viability, T/C","second compound 10 µM, first compound 0.949 µM",0.18%
same,"viability, T/C","second compound 10 µM, first compound 3 µM",0.15%
C=CC(=O)Nc1cc(Nc2nccc(-c3cn(C)c4ccccc34)n2)c(OC)cc1N(C)CCN(C)C + CN1CCN(c2cc(C(=O)Nc3cc4cc(-c5cnn(C)c5)ccc4cn3)ccn2)CC1,IC50,[1],> 300 nM
same,IC50,[2],> 300 nM
same,IC50,[3],< 0.949 nM
same,IC50,[4],< 0.949 nM
same,IC50,[5],< 0.949 nM
same,IC50,[6],< 0.949 nM
same,"viability, T/C","second compound 0.0316 µM, first compound 0.000949 µM",100%
same,"viability, T/C","second compound 0.0316 µM, first compound 0.003 µM",112%
same,"viability, T/C",[7],99.2%
same,"viability, T/C",[8],96.9%
same,"viability, T/C",[9],98.7%
same,"viability, T/C",[10],93.6%
same,"viability, T/C","second compound 0.1 µM, first compound 0.000949 µM",83.8%
same,"viability, T/C","second compound 0.1 µM, first compound 0.003 µM",88.1%
same,"viability, T/C",[11],87.4%
same,"viability, T/C",[12],90.7%
same,"viability, T/C",[13],96%
same,"viability, T/C",[14],69%
same,"viability, T/C","second compound 0.316 µM, first compound 0.000949 µM",30.1%
same,"viability, T/C","second compound 0.316 µM, first compound 0.003 µM",35%
same,"viability, T/C",[15],30.1%
same,"viability, T/C",[16],26.3%
same,"viability, T/C",[17],26.6%
same,"viability, T/C",[18],18.1%
same,"viability, T/C","second compound 1 µM, first compound 0.000949 µM",0.15%
same,"viability, T/C","second compound 1 µM, first compound 0.003 µM",0.25%
same,"viability, T/C",[19],0.9%
same,"viability, T/C",[20],0.25%
same,"viability, T/C",[21],1.86%
same,"viability, T/C",[22],1.95%
same,"viability, T/C","second compound 3.16 µM, first compound 0.000949 µM",1.21%
same,"viability, T/C","second compound 3.16 µM, first compound 0.003 µM",0.16%
same,"viability, T/C",[23],0.17%
same,"viability, T/C",[24],0.15%
same,"viability, T/C",[25],4.52%
same,"viability, T/C",[26],2.34%
same,"viability, T/C","second compound 10 µM, first compound 0.000949 µM",0.17%
same,"viability, T/C","second compound 10 µM, first compound 0.003 µM",0.21%
same,"viability, T/C",[27],1.31%
same,"viability, T/C",[28],2.14%
same,"viability, T/C",[29],3.21%
same,"viability, T/C",[30],0.21%
CCc1c2c(nc3ccc(O)cc13)-c1cc3c(c(=O)n1C2)COC(=O)[C@]3(O)CC,"viability, T/C",compound 0.00316 µM,12.7% and 12.1%
same,"viability, T/C",compound 0.01 µM,3.27% and 1.07%
same,"viability, T/C",compound 0.0316 µM,1.41% and 1.91%
same,"viability, T/C",compound 0.1 µM,3.19% and 1.33%
same,"viability, T/C",compound 0.316 µM,1.53% and 0.43%
same,"viability, T/C",compound 1 µM,2.07% and 1.46%
same,IC50,curve of compound,< 3.16 nM
